{
  "source": "patent US20250032580A1",
  "about": "“USE OF ADNF POLYPEPTIDES IN THERAPY” (RAMOT AT TEL-AVIV UNIVERSITY LTD., priority 2021, published 2025)",
  "key": {"N1E-115 cells": {"test_system": "N1E-115 cells", "test": "Polymerized vs. soluble tubulin assay", "type": "cell-based, mouse", "details": "zinc 400 μM, 4 h, peptide 10^−12 M", "description": "Polymerized vs. soluble tubulin assay—To quantify tubulin polymerization and Tau-MT association, a simple assay was performed as previously described. The cells grown to confluence in six-well plates were washed with MT buffer (80 mM PIPES pH 6.8, 1 mM MgCl^2, 2 mM EGTA, 5% Glycerol) and lysed at room temperature for 5 min through centrifugation (300 g), with 150 μl of MT buffer with 0.5% Triton X-100 to extract soluble (cytosolic) tubulin (S). The pelleted cells were rinsed once again with an equal volume of modified RIPA lysis buffer (50 mM Tris-HCL pH 7.4, 150 mM NaCl, 2 mM EGTA, 1% Triton X-100, 0.1% SDS, 0.1% sodium Deoxycholate) to collect the polymerized (cytoskeletal) tubulin (P). The cytosolic and cytoskeletal fractions were each mixed with sample buffer and heated at 95° C. for 5 min. An equal volume of each fraction was analyzed by immunoblotting with Tau, tubulin and actin antibodies, and the results following ECL development were quantified by densitometry (GelQuant.NET software provided by biochemlabsolutions(dot)com).\nIt is known that in the presence of extracellular zinc NAP protects MT against degradation by promoting Tau binding to the MT shaft. Polymerized vs. soluble tubulin assay was effected to compare protective activities of NAP and SKIP against MT degradation and Tau-MT dissociation (FIGS. 11F-G). After treatments with zinc (400 μM, 4 h) with and without NAP or SKIP (10^−12 M, 4 h) the cellular-tubulin pool was separated into polymerized and soluble tubulin fractions. The amount of Tau, tubulin, and actin was identified by immunoblotting (FIG. 11F), followed by densitometric quantification (FIG. 11G)."}, "male Tyr mice": {"test_system": "male Tyr mice", "test": "Visual evoked potentials (VEP)", "type": "in vivo, mouse", "parameters": "key to NAP efficacy: visual evoked potential: corrections by NAP treatment (+)", "description": "VEP—5.72±0.52-week-old male mice were used for VEP measurements. Animals were treated for 3 days with 0.1 ml S.C saline, recorded, and then followed by 4 daily S.C doses of either 1 μg NAP (in 0.1 ml saline) or 0.1 ml saline followed by another VEP recording."}, "[1]": {"details": "Ivashko-Pachima and Gozes 2020; cited from earlier work"}, "[2]": {"test_system": "Shank3-Adnp-actin interactions", "test": "Actin co-immunoprecipitations from mouse brain extracts", "description": "De novo heterozygous mutations in ADNP reproduced the autistic ADNP syndrome. ADNP mutations impair microtubule (MT) function, essential for synaptic activity. The ADNP MT-associating fragment NAPVSIPQ (NAP) (SEQ ID NO 2) contains an MT end-binding protein interacting domain, SxIP (mimicking the active-peptide, SKIP, SEQ ID NO 21). The inventors hypothesized that not all ADNP mutations are similarly deleterious and that the NAPV portion of NAPVSIPQ is biologically active. Using the eukaryotic linear motif (ELM) resource, the inventors identified a Src homology 3 (SH3) domain-ligand association site in NAP responsible for controlling signaling pathways regulating the cytoskeleton, namely NAPVSIP (SEQ ID NO: 2). Altogether, the inventors mapped multiple SH3-binding sites in ADNP. […] Site-directed-mutagenesis, abolishing the p.Lys408Valfs*31 SH3-binding motif, produced MT toxicity. […] Lastly, SH3 and multiple ankyrin repeat domains protein 3 (SHANK3), a major autism gene product, interact with the cytoskeleton through an actin-binding motif to modify behavior."}, "[3]": {"test_system": "differentiated N1E-115 cells", "test": "Live imaging of EB3 comet-like structures (MT dynamics)", "type": "cell-based, mouse", "description": "Cell culture—Mouse neuroblastoma NIE-115 cells were maintained in Dulbecco's modified Eagle's medium, 10% fetal bovine serum, 2 mM glutamine and 100 U ml—1 penicillin, […] ml—1 streptomycin (Biological Industries, Beit Haemek, Israel). The cells were incubated in 95% air/5% CO2 in a humidified incubator at 37° C.\nCell differentiation and co-transfection of overexpression plasmids—Cultured NIE-115 cells were plated on 35 mm dishes (81156, 60μ-Dish, Ibidi, Martinsried, Germany) at a concentration of 1.25×10^4 cells per dish and then were differentiated with reduced fetal bovine serum (2%) and DMSO (1.25%) containing medium for 5 days before transfection. 48 hrs before experiments N1E-115 cells were co-transfected with 1 μg EB3-RFP or mCherry-Tau (3R) plasmid with or without 2 μg of plasmids, coding to GFP conjugated to full-length human ADNP, or ADNP carried mutations. 1:3 ratios between total amount of transfected DNA and transfection reagent were used according to manufacture guidance (Lipofectamine2000, Thermo Fisher Scientific, Waltham, MA, USA) in all subsequent experiments.\nLive Imaging—48 hrs after transfection, differentiated NIE-115 cells (expressing EB3-RFP with or without GFP-conjugated to full-length ADNP or mutated ADNP) were incubated at 37° C. with a 5% CO2/95% air mixture in a thermostatic chamber placed on the stage of a Leica TCS SP5 confocal microscope (objective 100× (PL Apo) oil immersion, NA 1.4). Time-lapse images were automatically captured 3 sec during 1 min, using the Leica LAS AF software. After imaging all samples were also treated with NAP (SEQ ID NO: 2) or SKIP (SEQ ID NO: 21) in final concentrations of 10^−12 M, and after 4 hrs time-lapse imaging was done again under the same conditions. Data was collected and analyzed by Imaris software.\nTo evaluate the effect of ADNP truncated proteins on MT dynamics time-lapse imaging of EB3 comet-like structures formed by RFP-tagged EB3 proteins that bind to MT plus-ends was performed. Two parameters of EB3 activity were used to assess MT dynamics—track length and track speed of EB3 comets, which reflect the length of freshly growing MTs and the speed of MT assembly, respectively. Furthermore, the present inventors aimed to determine whether NAP (10^−12 M for 4 hrs) could prevent the deleterious effect of ADNP mutations."}},
  "data": [
    {"smiles": "CC[C@H](C)[C@H](NC(=O)[C@H](CO)NC(=O)[C@@H](NC(=O)[C@@H]1CCCN1C(=O)[C@H](C)NC(=O)[C@@H](N)CC(N)=O)C(C)C)C(=O)N1CCC[C@H]1C(=O)N[C@@H](CCC(N)=O)C(=O)O", "note": "[NAP, NAPVSIPQ]", "values": [
      {"measurement": "Protection against Tau dissociation from MTs", "setting": "N1E-115 cells", "value": "only NAP exhibited protection"},
      {"measurement": "Protection of polymerized tubulin against zinc-induced decay", "setting": "N1E-115 cells", "value": "protected against zinc-induced decay"},
      {"measurement": "NAP efficacy: visual evoked potential", "setting": "male Tyr mice; Tyr mouse, first symbol of cell", "value": "+/+"},
      {"measurement": "VEP traces", "setting": "male Tyr mice; male Tyr mice, 4 consecutive daily doses", "value": "normalizing these effects"},
      {"measurement": "Decrease of VEP P2 AUC", "setting": "male Tyr mice; male Tyr mice, 4 daily s.c. doses of 1 μg NAP, 100, 300 and 3000 mcd", "value": "1.6-2.3 fold"},
      {"measurement": "VEP N2 AUC", "setting": "male Tyr mice; male Tyr mice, 100, 300 and 3000 mcd", "value": "same significant change"},
      {"measurement": "VEP P3 AUC", "setting": "male Tyr mice; male Tyr mice, 300 and 3000 mcd", "value": "significant NAP effect"},
      {"measurement": "Cell penetration", "setting": "[1]", "value": "bioavailable by endocytosis"},
      {"measurement": "Shank3-Adnp-actin interactions", "setting": "[2]", "value": "NAP-mediated normalization"},
      {"measurement": "Difference between effects of NAP and SKIP on EB3 track length and speed", "setting": "[3]; 10^−12 M, 4 hrs", "value": "no significant differences"},
      {"measurement": "Speed and track length of EB3 comets", "setting": "[3]; cells expressing ADNP p.Glu830synfs*83, 10^−12 M, 4 hrs", "value": "significantly augmented"},
      {"measurement": "EB3 comet speed", "setting": "[3]; cells expressing ADNP p.Lys408Valfs*31, 10^−12 M, 4 hrs", "value": "significantly augmented"},
      {"measurement": "EB3 activity (track length and comet speed)", "setting": "[3]; cells expressing ADNP p.Lys408Valfs*31 SDM, 10^−12 M, 4 hrs", "value": "recovered EB3 activity to the control level"},
      {"measurement": "Speed and track length of EB3 comets", "setting": "[3]; cells expressing ADNP p.Ser404*, 10^−12 M, 4 hrs", "value": "significantly augmented"},
      {"measurement": "EB3 comet track length and speed", "setting": "[3]; cells overexpressing full-length ADNP, 10^−12 M, 4 hrs", "value": "did not further influence"},
      {"measurement": "EB3 track length and speed compared to non-treated control", "setting": "[3]; no ADNP plasmid, 10^−12 M, 4 hrs", "value": "increased EB3 track length and speed"},
      {"measurement": "MT activities in the face of all ADNP mutations", "setting": "[3]; summary of results", "value": "normalized MT activities"}
    ]}
  ]
}
